Test results: article PMC5538626, “Structural and functional analysis of the GABARAP interaction motif (GIM)” (EMBO Reports, 2017)
Ends that are not written are not given here.

Tests used:
[1] = system: endogenous PLEKHM1:GABARAP complex; experiment: Peptide competition in immunoprecipitation of endogenous PLEKHM1; details: Plekhm1 +/+ MEF lysate, 50 μM peptide, cells treated 4 h KU-0063794 (10 μM) + chloroquine (20 μM); Fig 2D
GABARAP-L2 = target: T1, GABARAP-L2 (Homo sapiens, UniProt P60520); experiment: ITC titration of PLEKHM1-LIR peptide into GABARAP-L2; assay type: binding; details: 25°C, pH 7.0
T1 construct: modified Ub-leader (ubiquitin fusion leader) (N); made in house; host or cells: E. coli NEB T7 Express
Description: The genes for the truncated LC3A^2–121, LC3C^8–125, GABARAP^2–117 and GABARAP‐L1^2–117 proteins were cloned into pET30ΔSE vector between the BamHI and XhoI sites using previously established protocols 38. The chimeric constructs of the PLEKHM1‐LIR attached to the LC3A, GABARAP and GABARAP‐L1 proteins were prepared by inserting the oligonucleotide sequence corresponding to the PLEKHM1‐LIR peptide (P^629[…]^638) and glycine–serine linker into the BamHI site of the pET30ΔSE vector, placing the PLEKHM1‐LIR at the N‐terminal of the mature chimeric protein (similar to 31, 38). For the expression of human LC3 and GABARAP proteins for ITC and NMR experiments, plasmids with appropriate modified Ub‐leaders in pET vectors were used 39. Gene, encoding PLEKHM1‐LIR peptide, was ordered as synthetic oligonucleotides (Eurofins Genomics GmbH) and cloned into the pET39_Ub63_ vector 39 by NcoI–BamHI restriction sites. After TEV cleavage, the resulting peptide has the amino acid sequence GAMG‐P^629[…]^642, where the first four residues (GAMG) are the cloning artefact.
The chimeric constructs were expressed as a His‐tag fusion protein in E. coli BL21(DE3) cells. The cells were induced with 0.3 mM IPTG at OD600 0.6 for 16 h at 26°C. The cell pellets were lysed using mechanical sonication in lysis buffer (20 mM Tris–HCl pH 9.0, 100 mM NaCl, 10 mM imidazole, supplemented with 0.1% Triton X‐100). The proteins were purified using Ni‐NTA beads (GE Healthcare) and the His‐tag was cleaved using thrombin (Invitrogen) at room temperature for 16 h. The last step was gel filtration chromatography using a Superdex S200/300 GL column (GE Healthcare). The proteins were concentrated using spin concentrators (Vivaspin). For ITC and NMR studies, the non‐labelled and stable isotopes labelled LC3 and GABARAP proteins were obtained based on the protocols described elsewhere 30, 39. Here, E. coli NEB T7 Express culture transformed with corresponding plasmids were grown till OD600 nm = 1.0 and protein expression was induced with 0.2 mM IPTG. The cultures were incubated at 25°C for 8–12 h before cell harvesting. Isolation and purification procedures were similar to those reported in Ref. 22, 40. Before experiments, all proteins and peptides were equilibrated with a buffer containing 50 mM Na2HPO4, 100 mM NaCl at pH 7.0, and supplied with 5 mM protease inhibitor cocktail.
The protocol for preparation of non‐labelled and ^13C,^15N‐labelled PLEKHM1‐LIR peptide was slightly modified to achieve highest yield of the peptide. The 50 ml M9 culture was inoculated with NEB T7 cell transformed with pET39_Ub63‐PLEKHM1‐LIR plasmid and grown overnight at 37°. The collected cells were resuspended in 2 l of either LB or M9 media contained 1.5 g ^15N‐labelled NH4Cl and 3.0 g of ^13C‐labelled glucose. The cultures were grown at 37° till A(600 nm) = 0.9 and supplied with 1 mM of IPTG to induce Ub63‐PLEKHM1‐LIR overexpression (3 h at 37°). After that cells were harvested by centrifugation, re‐suspended in buffer contained 50 mM Tris–HCl pH = 7.9, 200 mM NaCl, 5% glycerol, 0.1 mg/ml DNase A and 4 mM protease inhibitor cocktail. After cell lysis by French press, debris was removed by centrifugation and clear supernatant was applied onto the column contained Ni‐NTA Sepharose equilibrated with the loading buffer (50 mM Tris–HCl pH = 7.9, 250 mM NaCl, 1% glycerol and 20 mM imidazole). Elution was performed with 400 mM imidazole in the same buffer. An aliquot of pure Ub63‐PLEKHM1‐LIR fractions was further purified by gel filtration on Superdex75 26 × 60 column for control ITC and analytical size exclusion chromatography experiments, remaining fusion protein was processed with the TEV‐protease and PLEKHM1‐LIR peptide was purified to 95% purity by reverse Ni‐NTA chromatography and followed gel filtration on Superdex75 26 × 60 column. Peak maximum of peptide was detected at […] (void volume 115 ml). Pure peptide was concentrated in Amicon concentrators with cut‐off of 3 kDa (> 95% retention). […]

[2] = system: GABARAP subfamily proteins (GABARAP-L1, GABARAP-L2); experiment: NMR titration of 15N-labelled GABARAP proteins with PLEKHM1-LIR peptide; assay type: binding, human; details: 298 K, 0.18 mM 15N-labelled protein, up to two times peptide excess
Description: All NMR experiments were performed at 298 K on Bruker Avance spectrometers operating at proton frequencies of 500, 600 and 700 MHz. Titration experiments were performed with a 0.18 mM ^15N‐labelled LC3 and GABARAP protein samples to which the non‐labelled PLEKHM1‐LIR peptide was added stepwise until four times excess to LC3 proteins or two times excess to the GABARAP proteins. Backbone HN resonances for selected mATG8 proteins in complex with the PLEKHM1‐LIR peptide were assigned using [^15N‐^1H]‐TROSY versions of 3D HNCACB experiment. For assignment of PLEKHM1‐LIR peptide backbone HN resonances in complexes with the LC3 and GABARAP proteins, [^15N‐^1H]‐TROSY versions of 3D HNCACB experiment and hCcconh‐TOCSY experiment were used.

T1 sequence (P60520 whole entry, the tested form may be a part): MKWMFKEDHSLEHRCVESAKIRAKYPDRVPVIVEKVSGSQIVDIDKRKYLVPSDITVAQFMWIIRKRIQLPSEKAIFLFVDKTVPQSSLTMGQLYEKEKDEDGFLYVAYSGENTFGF

GAMGPQQEDEWVNVQYPD [PLEKHM1‐LIR WT]
effect on endogenous PLEKHM1:GABARAP interaction [1]: blocked the interaction
ΔH (GABARAP-L2; VP-ITC, one-site model, 0.4 mM peptide into 0.020 mM protein, 50 mM Na2HPO4, 100 mM NaCl): -6.1 ± 0.1 kcal/mol
KA (GABARAP-L2): 1.07 ± 0.03 ×10^6 M^−1
N (number of binding sites) (GABARAP-L2): 1.05 ± 0.01
ΔG (GABARAP-L2): -8.23 kcal/mol
ΔS (GABARAP-L2): +7.00 cal mol^−1 K^−1
−T × ΔS (GABARAP-L2): -2.09 kcal/mol
exchange behaviour upon titration, GABARAP subfamily [2]: slow exchange
